# “Also recorded” adds a separate entry of the source. Read-outs that look alike come from different tables or passages of the source.
# Tests used:
# Autistic children = details: cited from earlier work
# schizophrenic patients = details: Shepherd and Watt 1956; 0.75 mg per day; cited from earlier work
# [1] = in the human body; cited from earlier work
# [2] = tested on: resting and evoked activity of the brain of patient with Autism; assay: Quantitative Electroencephalogram (qEEG, Neuroguide 2.5) in ASD patient; format: in vivo, human; details: ASD Example One
# Experimental: In a paper by Thatcher et al, an Autistic signature was reported. […] Analysis was conducted using Neuroguide 2.5, a widely accepted and statistically valid instrument (Thatcher et al, 2003).
# aldehyde dehydrogenase = details: literature; cited from earlier work
# [3] = tested on: patient suffering from depression
# Experimental: The treatment composition is suitably applied in a single daily dose, e.g., 0.01 mg of the MAO-A agonist in 0.05 ml of transdermal cream applied once every morning. Caffeine may also be included in the composition to compensate for the anti-hypertensive effect of the preferred reserpine; the caffeine may suitably be included in an amount from about 50-100 mg/dose.
# Treatment was in the form of 0.01 mg of reserpine per 0.05 ml of transdermal cream, applied transdermally once a day in the morning.
# The treatment consisted of 0.01 mg of reserpine per 0.05 ml of cream, applied transdermally by rubbing the cream into the skin once a day in the morning.
# The treatment consisted of 0.01 mg of the reserpine per 0.05 ml of cream, applied transdermally by rubbing the cream into the skin once a day in the morning.
# The patient discontinued the use of nortriptyline and the same day started the treatment of the present invention, using 0.01 mg of the reserpine per 0.05 ml cream, applied transdermally by rubbing the cream into the skin once a day in the morning.
# The patient then started the treatment of the present invention, using 0.01 mg of the MAO-A activity stimulator (reserpine) per 0.05 ml cream, applied transdermally by rubbing the cream into the skin once a day in the morning.
# patient with Autism = assay: Case examples: patients with Autism (ASD), transdermal reserpine (with prior medication history); format: in vivo, human; details: for outcome of prior reserpine treatment: reserpine 0.01 mg/day
# Experimental: The treatment composition is suitably applied in a single daily dose, e.g., 0.01 mg of the MAO-A agonist in 0.05 ml of spray solution applied once every morning.
# Prior to administration of the present invention (transdermal reserpine), the patient's parents were provided with an informed consent documenting the potential risks, benefits and alternatives to this treatment. The patient was started on a dose of Reserpine at a 4× dilution resulting in a total dose of 0.01 mg. […] They were also given approximately 1400 mg of Calcium every morning.
# MAO-A = details: Youdim & Sandler (1968); cited from earlier work
# [4] = tested on: patient diagnosed with chronic schizophrenia; assay: Case example: patient with chronic schizophrenia, transdermal reserpine spray (with prior medication history); format: in vivo, human
# [5] = ASD Example Three, 0.01 mg per day
# [6] = ASD Example Three, continued 0.01 mg per day
# [7] = ASD Example Two, 0.01 mg per day
# [8] = Schizophrenia Example One, first day
# [9] = Schizophrenia Example One, fourth day
# [10] = Schizophrenia Example One, next 2 days
structure (smiles),measurement,setting,value
COC(=O)[C@H]1[C@H]2C[C@@H]3c4[nH]c5cc(OC)ccc5c4CCN3C[C@H]2C[C@@H](OC(=O)c2cc(OC)c(OC)c(OC)c2)[C@@H]1OC [reserpine],average optimum dose,"Autistic children; Lehman et al 1957, oral",5 mg per day
same,optimum dose,"Autistic children; Lehman et al 1957, oral, improvements only within this range, per day",3 to 7 mg
same,effectiveness in autism,"Autistic children; Macready 2001, doses of 0.25-1.8 mg/day",may be effective in autism
same,effect of low dose in schizophrenia,schizophrenic patients,resembling more an inert substance than the drug
same,therapeutic half-life,[1],33 h
same,change in quantitative Electroencephalogram,[2]; after three weeks of treatment (FIG. 5),significant change in their quantitative Electroencephalogram
same,High Beta activity in qEEG,"[2]; increased after starting HBOT, after starting transdermal reserpine",appears to subside
same,effect on aldehyde dehydrogenase,aldehyde dehydrogenase,inhibit aldehyde dehydrogenase
same,effect on symptoms of depression,"[3]; Depression Example Five, 0.002 mg, other symptoms persisted",alleviation of their symptoms of feeling hopelessness and “doom and gloom”
same,effect on symptoms of depression,"[3]; Depression Example Five, 0.004 mg, third day, fatigue and insomnia still experienced",improvement in their emotions
same,effect on symptoms of depression,"[3]; Depression Example Five, 0.006 mg per day",all of the patient's symptoms of depression were successfully alleviated
same,return of symptoms on long-term treatment,"[3]; Depression Example Five, eight consecutive months, 0.006 mg per day transdermally",no return of the symptoms of depression
same,time to resolution of fatigue and loss of energy after first dose,"[3]; Depression Example Four: person, 0.01 mg of reserpine per 0.05 ml cream transdermally once a day, nortriptyline discontinued",one
same,outcome after dose increase during stressful event,"[3]; Depression Example Four, 0.02 mg for one week",insomnia and fatigue resolved
same,return of symptoms on long-term treatment,"[3]; Depression Example Four, 10 months of consecutive daily treatment, 0.01 mg",no return of the symptoms listed above
same,outcome after return to the lower dose,"[3]; Depression Example Four, returned to 0.01 mg dose",no return of any symptoms of depression
same,time to significant improvement in state of mind after first application,"[3]; Depression Example One: 250-pound person, 0.01 mg of reserpine per 0.05 ml of transdermal cream once a day",four
same,weight lost during the treatment,"[3]; Depression Example One, 0.01 mg transdermal once a day",> 20 pounds
same,status of prior symptoms of depression on continued treatment,"[3]; Depression Example One, 0.01 mg transdermal, consecutive 24-hour dosing regimen",remains free of all of the prior symptoms
same,time from last dose to beginning return of symptoms,"[3]; Depression Example One, dose forgotten for a day",about 32 hours
same,time to freedom from all symptoms after applying the missed dose,"[3]; Depression Example One, dose missed for 72 hours",one
same,marijuana use during the treatment,[3]; Depression Example Three,has not used any marijuana during the treatment
same,time to resolution of pessimism and negative mood aspects after first dose,"[3]; Depression Example Three: 220-pound person, depression and substance abuse, 0.01 mg of reserpine per 0.05 ml of cream transdermally once a day",two
same,cravings for substances of abuse,"[3]; Depression Example Three, after first dose 0.01 mg",no cravings for marijuana or alcohol
same,outcome after dose decrease,"[3]; Depression Example Three, dose decreased to 0.0075 mg of reserpine",symptoms resolved that same day
same,weight lost,"[3]; Depression Example Three, first 60 days",five
same,weight loss after resuming the treatment,[3]; Depression Example Two,1-2 pound per week
same,time to increased energy after applying the dose,"[3]; Depression Example Two: 175-pound person, 0.01 mg of reserpine per 0.05 ml of cream transdermally once a day",one
same,time to resolution of all perceptible symptoms after first application (except slight problems with memory),"[3]; Depression Example Two, 0.01 mg transdermal",≤ 10 h
same,return of symptoms during treatment,"[3]; Depression Example Two, 30 consecutive days",no return of their symptoms
same,time to resolution of symptoms after resuming the treatment,"[3]; Depression Example Two, after 10 day interruption",one
same,total weight lost,"[3]; Depression Example Two, first 50 days",15 pounds
same,symptoms during interruption of treatment,"[3]; Depression Example Two, treatment interrupted for 10 days",all of the symptoms returned
same,time to improvement or resolution of symptoms after first application,[3]; each of the depression examples,1 to 4 h
same,course of headache after dose reduction,"[3]; human, in vivo",resolved immediately
same,effect of too high a dose,"[3]; human, in vivo",undesirable increase in the symptoms of depression
same,negative side effects,"[3]; human, in vivo",no significant negative side effects
same,side effect at starting dose,"[3]; human, in vivo",headache that did not resolve spontaneously the first day
same,effect of starting dose,"patient with Autism; ASD Example One: person, transdermal, total dose of 0.01 mg",some increased hyperactivity
same,motor hyperactivity,"patient with Autism; ASD Example One, 0.005 mg",mild increase in motor hyperactivity
same,temper outbursts during the course of treatment,"patient with Autism; ASD Example One, 0.005 mg, no quetiapine administration needed",no temper outbursts
same,anxiety,"patient with Autism; ASD Example One, after three weeks of treatment",markedly decreased amount of anxiety
same,"social interactions, language and attention","patient with Autism; ASD Example One, after three weeks, reduced dose 0.005 mg transdermal","significant improvements in their social interactions, language, and attention; also recorded: started using several meaningful sentences in succession"
same,“stimming” (banging of the plastic sticks),"patient with Autism; ASD Example Three: person, transdermal reserpine 0.01 mg per day, immediately",reduced to only infrequent occurrence
same,speech after 2 months,"patient with Autism; ASD Example Three, 0.01 mg","shouted out very clearly the words, “I'm hungry”"
same,behavior by the second day of administration,patient with Autism; [5],left their clothes on without supervision
same,social response and language comprehension (parents' report),patient with Autism; [5],will now look at them and smile when spoken to and appears to understand language better
same,speech within the first 30 days,patient with Autism; [5],started making some new speech sounds
same,continued course,patient with Autism; [6],"subtle slow improvements in social behavior, speech, attention span, and awareness and interaction with their environment"
same,side effects,patient with Autism; [6],without any side effects
same,attention span,"patient with Autism; ASD Example Two: person, transdermal reserpine 0.01 mg per day, immediately",increase attention span
same,affectionate behavior,patient with Autism; [7],become more affectionate toward their parents and grandparents
same,speech,patient with Autism; [7],all of their speech is clear and comprehensible
same,time they could stay focused on a task,patient with Autism; [7],≥ 30 min
same,effect of increased dose,"patient with Autism; ASD Example Two, 0.015 mg per day, off gluten free diet",very hyperactive and aggressive
same,outcome after dose decreased back,"patient with Autism; ASD Example Two, back to 0.01 mg per day, off gluten free diet","maintained their improvements in speech, social behavior, and attention span"
same,outcome of prior reserpine treatment,patient with Autism; Homeopathic Example One: person,Substantial improvements
same,outcome of prior reserpine treatment,patient with Autism; Homeopathic Example Two: person,substantial improvement
same,urinary calcium excretion,patient with Autism; as a result of reserpine administration,increase in the amount of calcium excreted in the urine
same,effect on MAO-A,MAO-A,activate MAO-A
same,side effects after first application,"[4]; Schizophrenia Example One: person, transdermal reserpine via metered sprayer on forearm, Abilify stopped the day before","feeling severely depressed; also recorded: rapid heart rate, and anxiety"
same,time to onset of feeling severely depressed after rubbing the spray into skin,"[4]; Schizophrenia Example One, first application",≤ 30 s
same,effect on symptoms of schizophrenia (report),[4]; [8],"more focused, they had clearer thoughts"
same,time to resolution of side effect symptoms after applying the spray,[4]; [8],2 to 3 h
same,side effects,[4]; [9],none of these side effect symptoms occurred
same,task completion,[4]; [9],completed a list of chores that they gave them without supervision
same,severity of returning side effects,[4]; [10],slightly less severe
same,time to resolution of side effect symptoms after applying the dose,[4]; [10],≤ 2 h
same,behavior when required calcium was not taken,"[4]; Schizophrenia Example One, sixth day, 2,000 mg calcium omitted",became very aggressive
same,effect on blood calcium without additional calcium,[4]; without taking additional calcium daily,can cause hypocalcemia

# From US9364474B2, “Method for treatment of neurologic dysfunction” (MedDEV, Inc., priority 2004, dated 2016)
